In patent US6111067A, “A-82846-type glycopeptide antibiotics” (Eli Lilly and Company, priority 1993, dated 2000):
In brackets after ≈: the same amount, converted by molar mass.

Assays:
[1] = tested on: Escherichia coli EC14; assay: In vitro antibacterial activity, agar-dilution MIC; format: cell-based; conditions: highest level tested 128 mcg/mL
Procedure: (§1) The formula 1 compounds have in vitro and in vivo activity against Gram-positive pathogenic bacteria. The MIC's were determined by standard agar-dilution assays.

[2] = tested on: Haemophilus influenzae 76; assay: In vitro antibacterial activity, agar-dilution MIC; format: cell-based; conditions: Haemophilus influenzae 76, ampicillin-resistant strain, highest level tested 128 mcg/mL
Procedure: as §1

[3] = tested on: Haemophilus influenzae C.L.; assay: In vitro antibacterial activity, agar-dilution MIC; format: cell-based; conditions: ampicillin-sensitive strain, highest level tested 128 mcg/mL
Procedure: as §1

[4] = tested on: Klebsiella pneumoniae X26; assay: In vitro antibacterial activity, agar-dilution MIC; format: cell-based; conditions: highest level tested 128 mcg/mL
Procedure: as §1

[5] = tested on: Staphylococcus aureus V41; assay: In vitro antibacterial activity, agar-dilution MIC; format: cell-based; conditions: Staphylococcus aureus V41, penicillin-resistant strain
Procedure: as §1

[6] = tested on: Staphylococcus aureus X1.1; assay: In vitro antibacterial activity, agar-dilution MIC; format: cell-based
Procedure: as §1

[7] = tested on: Staphylococcus aureus X400; assay: In vitro antibacterial activity, agar-dilution MIC; format: cell-based; conditions: Staphylococcus aureus X400, methicillin-resistant strain
Procedure: as §1

[8] = tested on: Staphylococcus epidermidis 222; assay: In vitro antibacterial activity, agar-dilution MIC; format: cell-based
Procedure: as §1

[9] = tested on: Streptococcus Group D 2041; assay: In vitro antibacterial activity, agar-dilution MIC; format: cell-based
Procedure: as §1

[10] = tested on: Streptococcus Group D X66; assay: In vitro antibacterial activity, agar-dilution MIC; format: cell-based
Procedure: as §1

[11] = tested on: Streptococcus pyogenes C203; assay: In vitro antibacterial activity, agar-dilution MIC; format: cell-based
Procedure: as §1

[12] = tested on: Staphylococcus aureus S13E; format: cell-based; conditions: agar dilution
Procedure: as §1

[13] = tested on: Streptococcus pneumoniae Park I; format: cell-based; conditions: agar dilution
Procedure: as §1

[14] = tested on: Staphylococcus epidermidis 270; assay: In vitro antibacterial activity, agar-dilution MIC; format: cell-based
[15] = tested on: Staphylococcus aureus; assay: In vivo activity against experimentally-induced infection in mice (ED50); conditions: mice infected with Staphylococcus aureus; subcutaneous doses 1 and 4 hours postinfection
Procedure: (§2) The formula 1 compounds have also shown in vivo antimicrobial activity against experimentally-induced infections in laboratory animals. When two doses of test compound were administered to mice experimentally infected with the test organism, the activity observed was measured as an ED50 value [effective dose in mg/kg to protect 50% of the test animals: see Warren Wick, et al., J. Bacteriol. 81, 233-235 (1961)]. ED50 values observed for illustrative compounds are given in Table III. | ^a mg/kg × 2; doses administered subcutaneously to mice 1 and 4 | hours postinfection

[16] = tested on: Streptococcus pneumoniae; assay: as above; conditions: mice infected with Streptococcus pneumoniae; subcutaneous doses 1 and 4 hours postinfection
Procedure: as §2

[17] = tested on: Streptococcus pyogenes; assay: as above; conditions: mice infected with Streptococcus pyogenes; subcutaneous doses 1 and 4 hours postinfection
Procedure: as §2

Compound	MIC [1]	MIC [2]	MIC [3]	MIC [4]	MIC [5] [µg/mL]	MIC [6] [µg/mL]	MIC [7] [µg/mL]	MIC [8] [µg/mL]	MIC [9] [µg/mL]	MIC [10] [µg/mL]	MIC [11] [µg/mL]	MIC [12] [µg/mL]	MIC [13] [µg/mL]	MIC [14] [µg/mL]	ED50 Value [15] [mg/kg × 2]	ED50 Value [16] [mg/kg × 2]	ED50 Value [17] [mg/kg × 2]
CNC(CC(C)C)C(=O)NC1C(=O)NC(CC(N)=O)C(=O)NC2C(=O)NC3C(=O)NC(C(=O)NC(C(=O)O)c4cc(O)cc(O)c4-c4cc3ccc4O)C(OC3CC(C)(N)C(O)C(C)O3)c3ccc(cc3)Oc3cc2cc(c3OC2OC(CO)C(O)C(O)C2O)Oc2ccc(cc2Cl)C1O (stereo not shown) [Compound 2a]	-- (Not active at 128 mcg/mL, the highest level tested)	-- (Not active at 128 mcg/mL, the highest level tested)	-- (Not active at 128 mcg/mL, the highest level tested)	-- (Not active at 128 mcg/mL, the highest level tested)	1 (≈ 0.707 µM)	0.5 (≈ 0.353 µM)	1 (≈ 0.707 µM)	1 (≈ 0.707 µM)	4 (≈ 2.83 µM)	1 (≈ 0.707 µM)	0.5 (≈ 0.353 µM)	0.5 (≈ 0.353 µM)	1 (≈ 0.707 µM)	1 (≈ 0.707 µM)	2.97	2.04	3.54
CN[C@H](CC(C)C)C(=O)N[C@H]1C(=O)N[C@@H](CC(N)=O)C(=O)N[C@H]2C(=O)N[C@H]3C(=O)N[C@H](C(=O)N[C@H](C(=O)O)c4cc(O)cc(O)c4-c4cc3ccc4O)[C@H](O[C@H]3C[C@](C)(N)[C@@H](O)[C@H](C)O3)c3ccc(cc3)Oc3cc2cc(c3O)Oc2ccc(cc2Cl)[C@H]1O [Compound 2b]	-- (Not active at 128 mcg/mL, the highest level tested)	-- (Not active at 128 mcg/mL, the highest level tested)	-- (Not active at 128 mcg/mL, the highest level tested)	-- (Not active at 128 mcg/mL, the highest level tested)	1 (≈ 0.798 µM)	1 (≈ 0.798 µM)	1 (≈ 0.798 µM)	2 (≈ 1.6 µM)	4 (≈ 3.19 µM)	1 (≈ 0.798 µM)	1 (≈ 0.798 µM)	1 (≈ 0.798 µM)	1 (≈ 0.798 µM)	2 (≈ 1.6 µM)	3.06	3.74	3.54
CN[C@H](CC(C)C)C(=O)N[C@H]1C(=O)N[C@@H](CC(N)=O)C(=O)N[C@H]2C(=O)N[C@H]3C(=O)N[C@H](C(=O)N[C@H](C(=O)O)c4cc(O)cc(O)c4-c4cc3ccc4O)[C@H](O)c3ccc(cc3)Oc3cc2cc(c3O)Oc2ccc(cc2Cl)[C@H]1O [Compound 2c]	-- (Not active at 128 mcg/mL, the highest level tested)	-- (Not active at 128 mcg/mL, the highest level tested)	-- (Not active at 128 mcg/mL, the highest level tested)	-- (Not active at 128 mcg/mL, the highest level tested)	4 (≈ 3.61 µM)	4 (≈ 3.61 µM)	8 (≈ 7.21 µM)	8 (≈ 7.21 µM)	16 (≈ 14.4 µM)	8 (≈ 7.21 µM)	4 (≈ 3.61 µM)	4 (≈ 3.61 µM)	4 (≈ 3.61 µM)	4 (≈ 3.61 µM)	–	–	–
CN[C@H](CC(C)C)C(=O)N[C@H]1C(=O)N[C@@H](CC(N)=O)C(=O)N[C@H]2C(=O)N[C@H]3C(=O)N[C@H](C(=O)N[C@H](C(=O)O)c4cc(O)cc(O)c4-c4cc3ccc4O)[C@H](O[C@H]3C[C@](C)(N)[C@@H](O)[C@H](C)O3)c3ccc(c(Cl)c3)Oc3cc2cc(c3O[C@@H]2O[C@H](CO)[C@@H](O)[C@H](O)[C@H]2O)Oc2ccc(cc2Cl)[C@H]1O [Compound 3a]	-- (Not active at 128 mcg/mL, the highest level tested)	-- (Not active at 128 mcg/mL, the highest level tested)	64 µg/mL (≈ 44.2 µM)	-- (Not active at 128 mcg/mL, the highest level tested)	0.25 (≈ 0.173 µM)	0.25 (≈ 0.173 µM)	0.5 (≈ 0.345 µM)	0.5 (≈ 0.345 µM)	1 (≈ 0.69 µM)	0.5 (≈ 0.345 µM)	0.25 (≈ 0.173 µM)	0.25 (≈ 0.173 µM)	0.25 (≈ 0.173 µM)	1 (≈ 0.69 µM)	0.54	0.34	0.70
CN[C@H](CC(C)C)C(=O)N[C@H]1C(=O)N[C@@H](CC(N)=O)C(=O)N[C@H]2C(=O)N[C@H]3C(=O)N[C@H](C(=O)N[C@H](C(=O)O)c4cc(O)cc(O)c4-c4cc3ccc4O)[C@H](O[C@H]3C[C@](C)(N)[C@@H](O)[C@H](C)O3)c3ccc(c(Cl)c3)Oc3cc2cc(c3O)Oc2ccc(cc2Cl)[C@H]1O [Compound 3b]	-- (Not active at 128 mcg/mL, the highest level tested)	64 µg/mL (≈ 49.7 µM)	32 µg/mL (≈ 24.9 µM)	-- (Not active at 128 mcg/mL, the highest level tested)	0.25 (≈ 0.194 µM)	0.125 (≈ 0.0971 µM)	0.5 (≈ 0.388 µM)	0.25 (≈ 0.194 µM)	1 (≈ 0.777 µM)	0.5 (≈ 0.388 µM)	0.25 (≈ 0.194 µM)	0.125 (≈ 0.0971 µM)	0.25 (≈ 0.194 µM)	0.5 (≈ 0.388 µM)	0.50	0.30	0.40
